# Key:
# [1] = biological target: Alpha-2A adrenergic receptor (Homo sapiens, UniProt P08913); assay: GPCRScan assay: inhibition of Alpha2A; design: radioligand conc. used [nm] 1.0 – 3.0, parental cells stable MDCK
# [2] = biological target: ATP-sensitive inward rectifier potassium channel 11 (Cricetulus griseus) (UniProt A0A3L7HHE1); assay: Inhibition of Potassium Channel [KATP] at 10 µM in the Eurofins-Panlabs radioligand binding assay (Eurofins_assay_265600); conditions: Cricetinae; Compound concentration 10.0 uM
# ATP-sensitive inward rectifier potassium channel 11 (Cricetulus griseus), sequence (A0A3L7HHE1 as listed by the source): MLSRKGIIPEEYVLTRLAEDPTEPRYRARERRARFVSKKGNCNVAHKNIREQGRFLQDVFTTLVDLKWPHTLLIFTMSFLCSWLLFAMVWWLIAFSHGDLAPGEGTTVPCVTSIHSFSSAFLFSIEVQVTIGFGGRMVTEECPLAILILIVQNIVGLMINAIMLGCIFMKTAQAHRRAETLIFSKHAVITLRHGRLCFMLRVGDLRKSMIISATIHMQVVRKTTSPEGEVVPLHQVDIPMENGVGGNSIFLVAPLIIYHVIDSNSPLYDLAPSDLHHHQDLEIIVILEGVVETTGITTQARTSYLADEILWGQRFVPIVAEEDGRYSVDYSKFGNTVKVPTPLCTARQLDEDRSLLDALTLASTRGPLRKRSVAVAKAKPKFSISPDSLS
# [3] = biological target: voltage-gated sodium channel, site 2 (Rattus norvegicus, UniProt F1LQQ7+O08562+O88420+O88457+P04774+P04775+P08104+P15389+P15390+Q62968); assay: Inhibition of Sodium Channel, Site 2 at 10 µM in the Eurofins-Panlabs radioligand binding assay (Eurofins_assay_279510); assay type: protein assay; design: ligand concentration 5 nM, non-specific ligand with concentration 100 µM Veratridine, incubation time 60 min, incubation temperature 37 °C; conditions: male, Wistar, rat whole brain (except cerebellum) membranes, probe [3H] Batrachotoxinin, compound concentration 10 uM
# [4] = biological target: Aurora kinase A (Homo sapiens, UniProt O14965); assay: AurA [Aur2(AURALGF1)] Takeda global kinase panel
# [5] = biological target: Citron Rho-interacting kinase (Homo sapiens, UniProt O14578); assay: CRIK(CIT1LGY1) Takeda global kinase panel
# [6] = biological target: Dual specificity protein kinase CLK2 (Homo sapiens, UniProt P49760); assay: CLK2(CLK2LGF1) Takeda global kinase panel
# Dual specificity protein kinase CLK2, sequence (P49760 whole entry): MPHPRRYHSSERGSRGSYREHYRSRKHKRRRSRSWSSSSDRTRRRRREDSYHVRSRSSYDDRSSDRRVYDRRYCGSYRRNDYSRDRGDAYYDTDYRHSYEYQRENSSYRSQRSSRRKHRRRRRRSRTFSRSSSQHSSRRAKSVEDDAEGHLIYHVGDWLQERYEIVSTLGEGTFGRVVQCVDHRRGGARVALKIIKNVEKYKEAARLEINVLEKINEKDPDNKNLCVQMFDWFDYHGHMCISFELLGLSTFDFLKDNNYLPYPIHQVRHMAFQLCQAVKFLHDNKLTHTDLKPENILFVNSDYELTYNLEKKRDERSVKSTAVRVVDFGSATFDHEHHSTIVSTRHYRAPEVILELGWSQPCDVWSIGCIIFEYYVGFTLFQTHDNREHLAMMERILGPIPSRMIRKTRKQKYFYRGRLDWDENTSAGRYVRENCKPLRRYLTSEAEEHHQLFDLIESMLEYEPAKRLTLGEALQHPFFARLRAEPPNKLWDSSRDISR
# [7] = biological target: Tyrosine-protein kinase CSK (Homo sapiens, UniProt P41240); assay: CSK(CSK1LGF1) Takeda global kinase panel
# [8] = biological target: Casein kinase I isoform alpha (Homo sapiens, UniProt P48729); assay: CK1alpha(C1A1PHY1) Takeda global kinase panel
# Casein kinase I isoform alpha, sequence (P48729 whole entry, canonical isoform): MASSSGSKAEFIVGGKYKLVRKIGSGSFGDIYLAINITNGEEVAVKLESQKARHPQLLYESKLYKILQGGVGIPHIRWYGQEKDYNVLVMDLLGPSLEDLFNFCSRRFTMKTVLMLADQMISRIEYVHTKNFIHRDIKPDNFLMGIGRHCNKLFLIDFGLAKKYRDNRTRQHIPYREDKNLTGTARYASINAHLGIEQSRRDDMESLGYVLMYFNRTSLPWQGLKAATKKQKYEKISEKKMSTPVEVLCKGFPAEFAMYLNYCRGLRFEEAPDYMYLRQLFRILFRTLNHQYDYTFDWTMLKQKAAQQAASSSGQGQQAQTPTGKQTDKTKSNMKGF
# [9] = biological target: Serine/threonine-protein kinase DCLK3 (Homo sapiens, UniProt Q9C098); assay: DCAMKL3(DCL3LGP1) Takeda global kinase panel
# [10] = biological target: Dual specificity tyrosine-phosphorylation-regulated kinase 1A (Homo sapiens, UniProt Q13627); assay: DYRK1A(DY1ALGP1) Takeda global kinase panel
# [11] = biological target: Eukaryotic translation initiation factor 2-alpha kinase 3 (Homo sapiens, UniProt Q9NZJ5); assay: PERK [PEK(EIK3CGQ1)] Takeda global kinase panel
# [12] = biological target: Ephrin type-B receptor 2 (Homo sapiens, UniProt P29323); assay: EphB2(EPB2LGY1) Takeda global kinase panel
# [13] = biological target: Fibroblast growth factor receptor 3 (Homo sapiens, UniProt P22607); assay: FGFR3(FGF3LGF1) Takeda global kinase panel
# [14] = biological target: Vascular endothelial growth factor receptor 3 (Homo sapiens, UniProt P35916); assay: FLT4(FLT4LGY1) Takeda global kinase panel
# [15] = biological target: Rhodopsin kinase GRK1 (Homo sapiens, UniProt Q15835); assay: RHODK [GRK1(GRK1LGA1)] Takeda global kinase panel
# [16] = biological target: Insulin receptor (Homo sapiens, UniProt P06213); assay: InSR(INSRLGY1) Takeda global kinase panel
# [17] = biological target: Mast/stem cell growth factor receptor Kit (Homo sapiens, UniProt P10721); assay: Kit(KIT1MGC1) Takeda global kinase panel
# [18] = biological target: Dual specificity mitogen-activated protein kinase kinase 6 (Homo sapiens, UniProt P52564); assay: MKK6 [MAP2K6(M2K6LGF1)] Takeda global kinase panel
# [19] = biological target: Mitogen-activated protein kinase 1 (Homo sapiens, UniProt P28482); assay: ERK2(MAP1LGY1) Takeda global kinase panel
# Mitogen-activated protein kinase 1, sequence (P28482 whole entry): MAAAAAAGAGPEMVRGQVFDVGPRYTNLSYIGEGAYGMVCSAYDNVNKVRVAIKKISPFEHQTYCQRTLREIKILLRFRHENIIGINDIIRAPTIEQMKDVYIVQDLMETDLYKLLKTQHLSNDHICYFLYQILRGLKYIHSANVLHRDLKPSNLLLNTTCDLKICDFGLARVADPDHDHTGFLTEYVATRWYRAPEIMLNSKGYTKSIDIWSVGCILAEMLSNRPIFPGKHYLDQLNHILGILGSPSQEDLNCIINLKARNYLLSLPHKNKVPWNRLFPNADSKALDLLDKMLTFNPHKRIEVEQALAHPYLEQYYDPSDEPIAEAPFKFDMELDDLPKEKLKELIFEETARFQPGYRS
# [20] = biological target: Mitogen-activated protein kinase 14 (Homo sapiens, UniProt Q16539); assay: p38alpha(MP14LGI1) Takeda global kinase panel
# [21] = biological target: Mixed lineage kinase domain-like protein (Homo sapiens, UniProt Q8NB16); assay: MLKL(MLKLPHY1) Takeda global kinase panel
# [22] = biological target: Serine/threonine-protein kinase pim-2 (Homo sapiens, UniProt Q9P1W9); assay: Pim2(PIM2LHY1) Takeda global kinase panel
# [23] = biological target: Serine/threonine-protein kinase D1 (Homo sapiens, UniProt Q15139); assay: PKD1(PRD1LHY1) Takeda global kinase panel
# Serine/threonine-protein kinase D1, sequence (Q15139 whole entry): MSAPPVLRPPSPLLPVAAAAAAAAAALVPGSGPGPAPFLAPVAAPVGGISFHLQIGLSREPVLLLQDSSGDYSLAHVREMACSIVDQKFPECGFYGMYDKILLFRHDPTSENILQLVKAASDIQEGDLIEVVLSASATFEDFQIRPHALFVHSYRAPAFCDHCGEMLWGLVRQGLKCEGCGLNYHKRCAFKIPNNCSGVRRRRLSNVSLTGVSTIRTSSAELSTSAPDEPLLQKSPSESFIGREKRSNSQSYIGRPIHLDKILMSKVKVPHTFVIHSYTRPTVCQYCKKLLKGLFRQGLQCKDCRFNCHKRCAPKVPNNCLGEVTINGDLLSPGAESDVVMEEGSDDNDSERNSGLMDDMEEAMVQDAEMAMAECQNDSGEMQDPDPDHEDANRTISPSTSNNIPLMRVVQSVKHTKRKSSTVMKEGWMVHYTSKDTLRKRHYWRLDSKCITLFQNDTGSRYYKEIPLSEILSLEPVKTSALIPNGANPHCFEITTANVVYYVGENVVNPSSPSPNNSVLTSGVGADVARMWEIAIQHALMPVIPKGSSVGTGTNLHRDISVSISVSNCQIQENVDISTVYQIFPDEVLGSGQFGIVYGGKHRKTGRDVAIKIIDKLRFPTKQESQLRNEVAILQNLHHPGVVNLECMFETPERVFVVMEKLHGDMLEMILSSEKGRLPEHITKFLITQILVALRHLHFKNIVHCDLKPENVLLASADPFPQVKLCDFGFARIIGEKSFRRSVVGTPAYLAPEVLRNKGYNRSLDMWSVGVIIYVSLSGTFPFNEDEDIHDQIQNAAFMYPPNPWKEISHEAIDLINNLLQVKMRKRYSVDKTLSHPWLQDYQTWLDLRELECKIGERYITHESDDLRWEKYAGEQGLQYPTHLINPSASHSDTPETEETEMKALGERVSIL
# [24] = biological target: Ribosomal protein S6 kinase alpha-4 (Homo sapiens, UniProt O75676); assay: MSK2(R6A4LGRJ) Takeda global kinase panel
# [25] = biological target: Serine/threonine-protein kinase Sgk2 (Homo sapiens, UniProt Q9HBY8); assay: SGK2(SGK2LGE5) Takeda global kinase panel
# Serine/threonine-protein kinase Sgk2, sequence (Q9HBY8 whole entry): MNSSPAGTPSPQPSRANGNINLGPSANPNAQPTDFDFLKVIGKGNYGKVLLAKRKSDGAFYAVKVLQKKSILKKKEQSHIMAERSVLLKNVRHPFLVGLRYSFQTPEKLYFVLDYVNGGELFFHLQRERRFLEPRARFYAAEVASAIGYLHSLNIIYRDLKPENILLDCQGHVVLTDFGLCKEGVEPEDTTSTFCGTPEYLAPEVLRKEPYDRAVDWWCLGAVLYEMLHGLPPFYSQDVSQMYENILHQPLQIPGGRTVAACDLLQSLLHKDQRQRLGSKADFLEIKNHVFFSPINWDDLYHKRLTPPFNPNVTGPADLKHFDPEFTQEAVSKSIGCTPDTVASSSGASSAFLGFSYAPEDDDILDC
# [26] = biological target: Serine/threonine-protein kinase 3 (Homo sapiens, UniProt Q13188); assay: MST2(STK3LGF1) Takeda global kinase panel
# [27] = biological target: Serine/threonine-protein kinase 4 (Homo sapiens, UniProt Q13043); assay: MST1(STK4LGF1) Takeda global kinase panel
# [28] = biological target: Dual specificity testis-specific protein kinase 2 (Homo sapiens, UniProt Q96S53); assay: TESK2(TES2LGRL) Takeda global kinase panel
# [29] = biological target: TGF-beta receptor type-1 (Homo sapiens, UniProt P36897); assay: TGFbetaR1(TGF1LGF1) Takeda global kinase panel
# [30] = biological target: TRAF2 and NCK-interacting protein kinase (Homo sapiens, UniProt Q9UKE5); assay: TNIK [ZC2(TNIKLGF1)] Takeda global kinase panel
# [31] = biological target: Non-receptor tyrosine-protein kinase TNK1 (Homo sapiens, UniProt Q13470); assay: Tnk1(TNK1LGY1) Takeda global kinase panel
# [32] = biological target: Serine/threonine-protein kinase ULK2 (Homo sapiens, UniProt Q8IYT8); assay: ULK2(ULK2LGY1) Takeda global kinase panel
# [33] = biological target: Bromodomain-containing protein 4 (Homo sapiens, UniProt O60885); assay: BRD4(BRD4LGRC) Takeda global kinase panel
# [34] = biological target: Histamine H2 receptor (Homo sapiens) (UniProt P25021); conditions: Compound concentration 10.0 uM
# [35] = biological target: Sigma intracellular receptor 2 (Homo sapiens, UniProt Q5BJF2); conditions: Compound concentration 10.0 uM
# Sigma intracellular receptor 2, sequence (Q5BJF2 whole entry): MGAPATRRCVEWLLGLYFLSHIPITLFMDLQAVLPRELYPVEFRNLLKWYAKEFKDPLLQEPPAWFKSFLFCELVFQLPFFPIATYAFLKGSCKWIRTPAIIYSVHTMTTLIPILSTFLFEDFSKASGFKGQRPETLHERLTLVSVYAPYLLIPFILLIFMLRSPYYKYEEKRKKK
# [36] = biological target: Beta-1 adrenergic receptor (Homo sapiens) (UniProt P08588); conditions: Compound concentration 10.0 uM
# Beta-1 adrenergic receptor (Homo sapiens), sequence (P08588 whole entry, looked up): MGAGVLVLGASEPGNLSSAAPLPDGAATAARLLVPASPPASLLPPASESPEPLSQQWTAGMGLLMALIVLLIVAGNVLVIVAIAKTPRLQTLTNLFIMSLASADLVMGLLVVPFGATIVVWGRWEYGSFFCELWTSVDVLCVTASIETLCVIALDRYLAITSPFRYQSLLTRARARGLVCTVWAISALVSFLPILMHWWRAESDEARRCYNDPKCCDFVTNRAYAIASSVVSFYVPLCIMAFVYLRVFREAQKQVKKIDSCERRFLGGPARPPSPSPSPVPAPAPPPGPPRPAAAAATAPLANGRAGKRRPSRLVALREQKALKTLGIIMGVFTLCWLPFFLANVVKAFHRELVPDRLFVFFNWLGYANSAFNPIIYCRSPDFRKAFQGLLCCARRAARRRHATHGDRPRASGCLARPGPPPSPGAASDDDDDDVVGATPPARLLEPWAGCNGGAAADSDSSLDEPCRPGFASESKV
# [37] = biological target: B2 bradykinin receptor (Homo sapiens) (UniProt P30411); conditions: Compound concentration 10.0 uM
# B2 bradykinin receptor (Homo sapiens), sequence (P30411 whole entry): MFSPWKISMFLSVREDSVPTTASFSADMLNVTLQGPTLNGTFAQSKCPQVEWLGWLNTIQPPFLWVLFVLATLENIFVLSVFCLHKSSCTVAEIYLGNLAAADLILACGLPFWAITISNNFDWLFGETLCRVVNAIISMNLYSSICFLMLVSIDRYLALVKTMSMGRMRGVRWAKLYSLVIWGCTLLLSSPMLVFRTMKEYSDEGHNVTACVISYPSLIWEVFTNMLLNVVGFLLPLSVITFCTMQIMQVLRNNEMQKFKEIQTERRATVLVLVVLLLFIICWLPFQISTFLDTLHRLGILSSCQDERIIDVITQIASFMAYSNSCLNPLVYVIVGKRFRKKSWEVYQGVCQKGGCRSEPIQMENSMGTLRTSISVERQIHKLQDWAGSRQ
# [38] = biological target: Endothelin-1 receptor (Homo sapiens) (UniProt P25101); conditions: Compound concentration 10.0 uM
# Endothelin-1 receptor (Homo sapiens), sequence (P25101 whole entry): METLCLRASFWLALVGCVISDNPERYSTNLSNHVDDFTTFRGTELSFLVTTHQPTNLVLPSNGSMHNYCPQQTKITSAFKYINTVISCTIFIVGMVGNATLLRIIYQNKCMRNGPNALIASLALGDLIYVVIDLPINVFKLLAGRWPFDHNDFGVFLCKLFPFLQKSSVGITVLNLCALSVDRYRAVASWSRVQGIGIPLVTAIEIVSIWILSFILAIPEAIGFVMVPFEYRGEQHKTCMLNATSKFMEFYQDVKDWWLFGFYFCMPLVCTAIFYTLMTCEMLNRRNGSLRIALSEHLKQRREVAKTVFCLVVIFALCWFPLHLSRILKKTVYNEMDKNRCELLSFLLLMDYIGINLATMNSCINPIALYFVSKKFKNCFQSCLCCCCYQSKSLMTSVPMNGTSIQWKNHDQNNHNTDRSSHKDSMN
# [39] = biological target: Endothelin receptor type B (Homo sapiens) (UniProt P24530); conditions: Compound concentration 10.0 uM
# [40] = biological target: GABA-A receptor; anion channel (Rattus norvegicus) (UniProt O09028+P15431+P18506+P18508+P19969+P20236+P23574+P23576+P28471+P28473+P30191+P62813+P63079+P63138+Q91ZM7+Q9ES14); conditions: Compound concentration 10.0 uM
# [41] = biological target: Sodium-dependent dopamine transporter (Homo sapiens) (UniProt Q01959); conditions: Compound concentration 10.0 uM
# Sodium-dependent dopamine transporter (Homo sapiens), sequence (Q01959 whole entry): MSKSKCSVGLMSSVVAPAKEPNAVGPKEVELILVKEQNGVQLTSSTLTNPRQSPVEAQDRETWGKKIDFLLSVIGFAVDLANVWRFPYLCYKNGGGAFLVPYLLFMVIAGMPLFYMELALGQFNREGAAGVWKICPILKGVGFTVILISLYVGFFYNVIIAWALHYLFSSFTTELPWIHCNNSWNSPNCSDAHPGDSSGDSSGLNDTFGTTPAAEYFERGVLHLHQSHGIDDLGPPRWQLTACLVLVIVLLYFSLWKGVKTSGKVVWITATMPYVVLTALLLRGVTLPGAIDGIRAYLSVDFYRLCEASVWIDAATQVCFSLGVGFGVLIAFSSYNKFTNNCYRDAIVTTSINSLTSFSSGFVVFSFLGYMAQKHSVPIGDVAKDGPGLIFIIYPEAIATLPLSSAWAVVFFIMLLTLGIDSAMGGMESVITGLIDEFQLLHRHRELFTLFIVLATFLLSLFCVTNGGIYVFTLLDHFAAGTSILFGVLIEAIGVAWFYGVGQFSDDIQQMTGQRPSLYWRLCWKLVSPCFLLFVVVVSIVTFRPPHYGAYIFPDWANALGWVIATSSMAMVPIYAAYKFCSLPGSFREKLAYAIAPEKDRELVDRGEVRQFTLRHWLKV
# [42] = biological target: Sodium-dependent noradrenaline transporter (Homo sapiens) (UniProt P23975); conditions: Compound concentration 10.0 uM
smiles,measurement,setting,value
CN1C(=O)[C@@H](N2CCc3c(nn(Cc4ccccc4)c3Br)C2=O)COc2ccccc21 [TP-030-2],Ki,[1],2.36 µM
same,inhibition,[2],14%
same,"inhibition at 60 min, 10 µM",[3],42% (not active)
same,IC50,[4],1 µM
same,IC50,[5],1 µM
same,IC50,[6],1 µM
same,IC50,[7],1 µM
same,IC50,[8],1 µM
same,IC50,[9],1 µM
same,IC50,[10],1 µM
same,IC50,[11],1 µM
same,IC50,[12],1 µM
same,IC50,[13],1 µM
same,IC50,[14],1 µM
same,IC50,[15],1 µM
same,IC50,[16],1 µM
same,IC50,[17],1 µM
same,IC50,[18],1 µM
same,IC50,[19],1 µM
same,IC50,[20],1 µM
same,IC50,[21],1 µM
same,IC50,[22],1 µM
same,IC50,[23],1 µM
same,IC50,[24],1 µM
same,IC50,[25],1 µM
same,IC50,[26],1 µM
same,IC50,[27],1 µM
same,IC50,[28],1 µM
same,IC50,[29],1 µM
same,IC50,[30],1 µM
same,IC50,[31],1 µM
same,IC50,[32],1 µM
same,IC50,[33],1 µM
same,inhibition,[34],0.52%
same,inhibition,[35],53.9%
same,inhibition,[36],-4%
same,inhibition,[37],0%
same,inhibition,[38],-3%
same,inhibition,[39],-7%
same,inhibition,[40],24%
same,inhibition,[41],35%
same,inhibition,[42],27%

# Reference: ChEMBL document CHEMBL4507326, “Data for DCP probe TP-030-2” (2021)
